{"source": "patent US8222216B2", "about": "“Mesenchymal cell proliferation promoter and skeletal system biomaterial” (Osaka University, priority 2006, dated 2012)", "key": {"[1]": {"test_system": "human periodontal ligament cells", "experiment": "Adhesion of human periodontal ligament cells to peptide-coated plate (crystal violet)", "format": "cell-based", "conditions": "plate coated with 0.01 to 100 μg/ml peptide, 30 minutes incubation, P<0.01, n=8, FIG. 11", "experimental": "(§1) An effect that is exerted on adhesive capacity of the mesenchymal cells by the SVVYGLR peptide (SEQ ID NO: 1) was analyzed. The mesenchymal cells used in this example were: human marrow-derived mesenchymal stem cells (human mesenchymal stem cell for study: provided by RIKEN CELL BANK); human gingival fibroblasts (isolated from human gingival and cultured according to a publicly known method); and human periodontal ligament cells (normal human periodontal ligament fibroblast cells: purchased from Sanko Junyaku Co., Ltd).\n(§2) A coating plate was produced through the steps of: adding the synthesized SVVYGLR peptide (SEQ ID NO: 1) (0 to 100 μg/ml) to a 96-well microplate for floating cells (ASAHI TECHNO GLASS CORPORATION) for culturing these cells, allowing the microplate to stand for 2 hours at 37 °C, and rinsing the microplate twice in phosphate buffer (PBS: Sigma Pharmaceuticals Ltd). The SVVYGLR peptide (SEQ ID NO: 1) was synthesized with the method described in example 1. […]\n(§3) The cells attached to the coating plate were stained with 0.1% crystal violet (Wako Chemicals USA. Inc) […], and then rinsed three times with PBS. Twenty-percent TritonX (Sigma Pharmaceuticals Ltd) was added to each well, and 48 hours later, optical density of each well at a wavelength of […] was measured (reference wavelength […]) by using an optical density spectrometer (BioRad model 680)."}, "[2]": {"test_system": "human marrow-derived mesenchymal stem cells", "experiment": "Adhesion of human marrow-derived mesenchymal stem cells to peptide-coated plate (crystal violet)", "format": "cell-based", "conditions": "plate coated with 0.01 to 100 μg/ml peptide, 30 minutes incubation, P<0.01, n=8, FIG. 9", "experimental": "as §1, §2, §3"}, "[3]": {"test_system": "human gingival fibroblasts", "experiment": "Adhesion of human gingival fibroblasts to peptide-coated plate (crystal violet)", "format": "cell-based", "conditions": "plate coated with 0.01 to 100 μg/ml peptide, 30 minutes incubation, P<0.01, n=8, FIG. 10", "experimental": "as §1, §2, §3"}, "[4]": {"test_system": "mesenchymal cells isolated from thigh bone marrow", "experiment": "Pellet culture of bone marrow mesenchymal cells (three-dimensional proliferation)", "format": "cell-based, Sprague-Dawley rat", "conditions": "100 ng/ml peptide", "experimental": "A pellet culture experiment was conducted to analyze how the SVVYGLR peptide (SEQ ID NO: 1) affected the mesenchymal cells when the mesenchymal cells clump together three-dimensionally over a long time.\nThe mesenchymal cells were isolated from thigh bone marrow of a Sprague-Dawley rat (8-week old male), and cultured in a pellet culture with initial count of 50,000 cells based on the method of Tsutsumi S et al. (Biochem Biophys Res Commun. 288:413-419:2001). The incubation was carried out with a culture medium prepared in such a manner that dexamethasone (100 nM, Sigma-Aldrich), ascorbic acid (50 μg/ml, Sigma-Aldrich), ITS+ premix (100 times diluted, BD Biosciences), and recombinant human transforming growth factor-β1 (10 ng/ml, PeproTech EC) were added to α-MEM (high glucose: Nacalai Tesque, Inc). The SVVYGLR peptide (SEQ ID NO: 1) (100 ng/ml) was added to the culture medium and the pellet was incubated for 26 days. The culture medium was replaced every other day.\nThe pellet was collected and fixed in phosphate buffered 10% formalin solution for 3 hours at 4° C. After the pellet was washed with PBS (pH7.4), the pellet was soaked in the PBS of a culture plate and photographed under a phase contrast microscope. Planar dimensions of the pellet on a photographed image were measured by using an image analysis software ImageJ ver.1.33u (National Institute of health, USA)."}, "dental pulp cells": {"test_system": "dental pulp cells", "experiment": "Proliferation of dental pulp cells (WST-1 cell counting)", "format": "cell-based, Sprague-Dawley rat", "conditions": "10 to 100 ng/ml peptide, day-10 or later, P<0.01, n=6, FIG. 2", "experimental": "(§4) An in vitro experiment was conducted to analyze how the SVVYGLR peptide (SEQ ID NO: 1) affected a proliferating ability of mesenchymal cells present in intercellular substances of bone marrow and dental pulp.\n(§5) Purchased human bone marrow-derived mesenchymal stem cells (Cambrex BioScience Inc.) were used as the mesenchymal cells of the intercellular substance of bone marrow. Further, “dental pulp cells”, the mesenchymal cells that constitute a main component of dental pulp tissue, were isolated from a lower incisor of a Sprague-Dawley rat (8-week old male) and cultured based on the method of Nakamura H et al. (J Dent Res. 84: 515-520: 2005), and used for the experiment.\n(§6) These cells were seeded into a 96-well cell culture plate at a rate of 5,000 cells/well, and the number of cells under the presence of the SVVYGLR peptide (SEQ ID NO: 1) (0 to 100 ng/ml) was measured by using WST-1 Cell Counting Kit (DOJINDO LABORATORIES). A culture medium was replaced every other day."}, "[5]": {"test_system": "human bone marrow-derived mesenchymal stem cells", "experiment": "Proliferation of human marrow-derived mesenchymal stem cells (WST-1 cell counting)", "format": "cell-based", "conditions": "10 to 100 ng/ml peptide, day-4 or later, P<0.01, n=6, FIG. 1", "experimental": "as §4, §5, §6"}}, "note": "No end group written: not given here."}
{"substance": "SVVYGLR [SVVYGLR peptide, osteopontin-derived peptide of seven amino acids, synthesized by Fmoc solid-phase method]", "values": [{"measurement": "number of human periodontal ligament cells adhered to coated plate compared to control", "setting": "[1]", "value": "significantly increased density-dependently"}, {"measurement": "number of human marrow-derived mesenchymal stem cells adhered to coated plate compared to control", "setting": "[2]", "value": "significantly increased density-dependently"}, {"measurement": "number of human gingival fibroblasts adhered to coated plate compared to control", "setting": "[3]", "value": "significantly increased density-dependently"}, {"measurement": "toluidine blue staining of pellet segments (extracellular matrix, acid mucopolysaccharide)", "setting": "[4]; 26 days pellet culture", "value": "no toluidine blue staining was observed"}, {"measurement": "pellet size (planar dimensions) relative to control group", "setting": "[4]; incubated 26 days, three pellets per group, FIG. 4", "value": 1.5, "unit": "times"}, {"measurement": "number of dental pulp cells compared to control group", "setting": "dental pulp cells", "value": "significantly increased"}, {"measurement": "number of human marrow-derived mesenchymal stem cells compared to control group", "setting": "[5]", "value": "significantly increased"}]}
